# Legend:
# Assay in all cases: relative viability (nuclei count vs DMSO), 5 days (fraction); higher = more cells survive
# Ispinesib + Alpelisib = compound: Cc1ccc(C(=O)N(CCCN)[C@@H](c2nc3cc(Cl)ccc3c(=O)n2Cc2ccccc2)C(C)C)cc1 [Ispinesib] + Cc1nc(NC(=O)N2CCC[C@H]2C(N)=O)sc1-c1ccnc(C(C)(C)C(F)(F)F)c1 [Alpelisib] (partner 2 µM)
# Summary of the method: (§1)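 Lung cancer cell lines in 1536-well plates were dosed by pin tool the day after seeding, either with one drug alone or with a fixed anchor-drug dose plus five library-drug doses (not always all listed) in √10 steps. After 5 days, cells were fixed and their nuclei stained in one step (final 0.05% Triton X-100, 1% formaldehyde, 1 ug/ml Hoechst), then counted on 4× images. Relative viability is the nuclei count in treated wells divided by that in vehicle wells. Values are medians of duplicate plates.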
# Linsitinib + Crizotinib = compound: C[C@]1(O)C[C@@H](c2nc(-c3ccc4ccc(-c5ccccc5)nc4c3)c3c(N)nccn32)C1 [Linsitinib] + C[C@@H](Oc1cc(-c2cnn(C3CCNCC3)c2)cnc1N)c1c(Cl)ccc(F)c1Cl [Crizotinib] (partner 1 µM)
# Summary of the method: as §1
# Ispinesib + Bortezomib = compound: Cc1ccc(C(=O)N(CCCN)[C@@H](c2nc3cc(Cl)ccc3c(=O)n2Cc2ccccc2)C(C)C)cc1 [Ispinesib] + CC(C)C[C@H](NC(=O)[C@H](Cc1ccccc1)NC(=O)c1cnccn1)B(O)O [Bortezomib] (partner 0.002 µM)
# Summary of the method: as §1
# Ispinesib + Crizotinib = compound: Cc1ccc(C(=O)N(CCCN)[C@@H](c2nc3cc(Cl)ccc3c(=O)n2Cc2ccccc2)C(C)C)cc1 [Ispinesib] + C[C@@H](Oc1cc(-c2cnn(C3CCNCC3)c2)cnc1N)c1c(Cl)ccc(F)c1Cl [Crizotinib] (partner 1 µM)
# Summary of the method: as §1
Cell Line,relative viability (Ispinesib + Alpelisib; first compound 0.001 µM),relative viability (Ispinesib + Alpelisib; first compound 0.003162 µM),relative viability (Ispinesib + Alpelisib; first compound 0.01 µM),relative viability (Ispinesib + Alpelisib; first compound 0.03162 µM),relative viability (Ispinesib + Alpelisib; first compound 0.1 µM),relative viability (Linsitinib + Crizotinib; first compound 0.01 µM),relative viability (Linsitinib + Crizotinib; first compound 0.03162 µM),relative viability (Linsitinib + Crizotinib; first compound 0.1 µM),relative viability (Linsitinib + Crizotinib; first compound 1 µM),relative viability (Ispinesib + Bortezomib; first compound 0.001 µM),relative viability (Ispinesib + Bortezomib; first compound 0.003162 µM),relative viability (Ispinesib + Bortezomib; first compound 0.01 µM),relative viability (Ispinesib + Bortezomib; first compound 0.03162 µM),relative viability (Ispinesib + Bortezomib; first compound 0.1 µM),relative viability (Ispinesib + Crizotinib; first compound 0.001 µM),relative viability (Ispinesib + Crizotinib; first compound 0.003162 µM),relative viability (Ispinesib + Crizotinib; first compound 0.01 µM),relative viability (Ispinesib + Crizotinib; first compound 0.03162 µM),relative viability (Ispinesib + Crizotinib; first compound 0.1 µM),relative viability (Linsitinib + Crizotinib; first compound 0.3162 µM)
NCI-H650,1.11,1.23,1.29,1.05,0.353,0.736,0.907,0.857,0.703,0.875,1.25,0.826,0.582,0.355,0.526,0.669,0.826,0.595,0.404,–
NCI-H2347,1.04,1.13,1.18,0.94,0.655,0.705,0.84,0.715,0.669,–,1,0.665,1.08,0.758,0.714,0.833,0.717,0.544,0.402,0.589
HARA,0.865,0.806,0.914,0.674,0.371,1.03,1.24,1.21,1.14,1.37,1.21,1.42,0.931,0.211,1.33,1.18,1.24,1.06,0.188,0.696
NCI-H2228,0.632,0.582,1.14,0.522,0.325,0.411,0.419,0.399,0.398,1.2,1.21,1.48,0.474,0.448,0.511,0.4,0.539,0.374,0.207,0.298
EKVX,0.978,0.879,0.923,0.944,0.273,0.895,0.938,0.99,0.943,1.09,1.24,1.15,0.939,0.186,1.19,1.34,1.06,0.689,0.196,0.795
HCC-827,0.91,1,0.981,0.922,0.814,0.997,1.03,0.932,0.948,1.1,1.18,1.04,0.691,0.875,0.965,0.91,0.957,0.918,0.69,–
NCI-H1755,1.09,1.03,1.16,0.815,0.547,0.833,0.85,0.901,0.81,0.975,1.07,1.01,0.605,0.249,0.881,0.622,0.945,0.864,0.461,0.825
NCI-H661,0.593,0.972,0.745,0.369,0.508,–,0.862,1.04,0.93,0.821,0.78,0.688,0.771,0.665,1.02,–,1.04,0.736,0.376,0.85
NCI-H23,0.547,0.679,0.785,0.731,0.459,0.416,0.445,0.591,0.451,0.977,1.09,1.6,0.331,0.241,0.475,0.46,0.595,0.499,0.283,0.351
HCC-366,0.733,0.393,0.535,0.47,0.135,0.542,0.487,0.583,0.429,1.29,1.1,1.43,0.323,0.0344,0.6,0.563,1.22,0.848,0.0887,0.433
EBC-1,0.77,0.861,0.931,0.244,0.274,0.168,0.173,0.212,0.193,0.663,0.626,0.476,0.207,0.263,0.189,0.194,0.194,0.167,0.152,0.197
LCLC-97TM1,0.282,0.23,0.324,0.211,0.159,0.336,0.416,0.525,0.305,0.518,1.16,0.689,0.143,0.254,0.291,0.381,0.508,0.236,0.175,0.263
NCI-H1299,1.11,1.09,1.15,1.17,0.449,0.96,0.975,1,0.931,1.02,1.06,1.07,1.01,0.671,1.01,0.977,1.02,0.805,0.469,0.949
EMC-BAC-2,0.815,0.752,0.917,0.548,0.526,0.8,0.738,0.696,0.688,1.06,1.13,1.27,0.671,0.214,0.914,0.847,0.756,0.751,0.481,0.517
NCI-H441,0.934,0.848,0.947,0.238,0.215,0.872,0.902,0.76,0.579,0.48,0.668,0.4,0.41,0.228,0.834,0.697,0.485,0.217,0.222,0.552
LCLC-103H,0.986,1.07,1.03,0.833,0.943,0.991,0.973,1.01,0.932,0.96,1.27,1.19,0.813,0.447,1.08,1.2,1.08,0.999,0.929,0.924

Cell Line,relative viability (Ispinesib + Alpelisib; first compound 0.001 µM),relative viability (Ispinesib + Alpelisib; first compound 0.003162 µM),relative viability (Ispinesib + Alpelisib; first compound 0.01 µM),relative viability (Ispinesib + Alpelisib; first compound 0.03162 µM),relative viability (Ispinesib + Alpelisib; first compound 0.1 µM),relative viability (Linsitinib + Crizotinib; first compound 0.01 µM),relative viability (Linsitinib + Crizotinib; first compound 0.03162 µM),relative viability (Linsitinib + Crizotinib; first compound 0.1 µM),relative viability (Linsitinib + Crizotinib; first compound 1 µM),relative viability (Ispinesib + Bortezomib; first compound 0.001 µM),relative viability (Ispinesib + Bortezomib; first compound 0.003162 µM),relative viability (Ispinesib + Bortezomib; first compound 0.01 µM),relative viability (Ispinesib + Bortezomib; first compound 0.03162 µM),relative viability (Ispinesib + Bortezomib; first compound 0.1 µM),relative viability (Ispinesib + Crizotinib; first compound 0.001 µM),relative viability (Ispinesib + Crizotinib; first compound 0.003162 µM),relative viability (Ispinesib + Crizotinib; first compound 0.01 µM),relative viability (Ispinesib + Crizotinib; first compound 0.03162 µM),relative viability (Ispinesib + Crizotinib; first compound 0.1 µM),relative viability (Linsitinib + Crizotinib; first compound 0.3162 µM)
HOP-62,0.656,0.957,0.908,1.17,0.981,0.959,1.02,0.798,0.954,0.46,0.974,1.18,1.09,0.32,0.966,1.04,0.792,0.976,0.918,–
NCI-H1355,0.841,0.866,0.979,0.596,0.859,0.974,0.997,0.888,0.664,1.28,1.23,1.43,0.815,0.293,1.13,1.19,1.29,1.15,0.451,0.79
COR-L23,0.827,0.948,1.08,0.144,0.16,0.611,0.672,0.742,0.658,1.29,1.04,1.17,0.247,0.27,0.68,0.729,0.882,0.311,0.248,0.556
HCC-44,0.805,0.878,1.11,0.822,0.234,0.704,0.78,0.739,0.612,0.911,1,1.1,0.719,0.131,0.796,0.905,0.951,0.776,0.121,0.56
A-427,1.1,1.21,0.993,1,1.04,0.872,0.779,1.04,0.726,0.98,1.07,1.01,0.351,0.206,0.886,1.23,0.968,0.887,0.369,–
IA-LM,0.742,0.904,1.09,0.11,0.158,0.763,0.775,0.736,0.496,1.09,0.814,0.866,0.0909,0.111,0.897,0.912,0.7,0.131,0.199,0.656
NCI-H520,1.04,0.98,0.767,0.276,0.243,0.844,0.615,0.953,0.817,0.568,0.706,0.541,0.218,0.242,0.783,0.631,0.781,0.346,0.438,–
LXF-289,1.06,1.05,1.16,0.993,0.733,0.789,0.885,0.807,0.792,0.993,0.992,1.14,0.799,0.118,0.798,0.815,0.888,0.759,0.397,0.671
NCI-H2087,0.992,1.2,1.28,1.02,0.159,0.763,1.01,0.836,0.729,0.852,0.978,1.05,0.477,0.153,0.839,1,0.995,0.61,0.146,0.842
CAL-12T,1.05,1.29,1.38,0.624,0.142,0.641,0.596,0.625,0.467,0.961,1.4,0.955,0.579,0.184,0.688,0.731,0.394,0.229,0.282,0.556
NCI-H596,0.563,0.427,0.583,0.458,0.394,0.969,1.08,0.969,1.04,1.14,1.22,1.12,1.08,0.463,1.1,0.95,1,1.03,0.652,0.987
PC-14,1.01,1.05,1.05,0.942,0.174,0.837,0.914,0.916,0.794,0.859,1.01,0.962,0.71,0.0916,0.967,0.971,1.07,0.873,0.232,0.869
NCI-H1915,1.09,1.16,1.03,0.958,0.979,0.944,0.918,0.936,0.754,1.04,1.14,1.13,0.797,0.172,0.972,0.675,0.926,0.842,0.432,0.796
NCI-H647,1.38,1.26,1.66,0.192,0.14,1.08,1.01,1.14,0.987,0.98,0.849,0.655,0.16,0.167,1.18,0.869,0.942,0.416,0.207,–
NCI-H322M,0.866,0.889,0.846,0.467,0.66,0.912,0.879,0.961,0.855,1.38,1.33,1.41,0.722,0.757,1.03,0.918,0.976,0.747,0.973,0.753
BEN,1.06,1.13,1.12,0.758,0.353,0.767,1.01,0.993,0.826,0.927,1.01,0.851,0.431,0.201,1.08,1.01,1.04,0.507,0.431,0.611

# — the supplement of paper PMC10307832
